# Test results as given in the supplement of paper PMC10307832.
# Columns and labels:
# Assay in all cases: relative viability (nuclei count vs DMSO), 5 days (fraction); higher = more cells survive
# RAF265 + Tozasertib = compound: Cn1c(Nc2ccc(C(F)(F)F)cc2)nc2cc(Oc3ccnc(-c4ncc(C(F)(F)F)[nH]4)c3)ccc21 [RAF265] + Cc1cc(Nc2cc(N3CCN(C)CC3)nc(Sc3ccc(NC(=O)C4CC4)cc3)n2)n[nH]1 [Tozasertib] (partner 0.1 µM)
# Procedure, shortened: (§1)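 Lung cancer cell lines were seeded in 1536-well plates and dosed by pin tool the next day, with either a single drug or a fixed anchor-drug dose combined with five library-drug doses (not always all listed) spaced in √10 steps. Five days later, one step fixed the cells and stained their nuclei (final 0.05% Triton X-100, 1% formaldehyde, 1 ug/ml Hoechst), and nuclei were counted on 4× images. Relative viability is the nuclei count in treated wells divided by the count in vehicle wells, and each value is the median of duplicate plates.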
# Doramapimod + Pemetrexed = compound: Cc1ccc(-n2nc(C(C)(C)C)cc2NC(=O)Nc2ccc(OCCN3CCOCC3)c3ccccc23)cc1 [Doramapimod] + Nc1nc2[nH]cc(CCc3ccc(C(=O)N[C@@H](CCC(=O)O)C(=O)O)cc3)c2c(=O)[nH]1 [Pemetrexed] (partner 0.2 µM)
# Procedure, shortened: as §1
# RAF265 + Lapatinib = compound: Cn1c(Nc2ccc(C(F)(F)F)cc2)nc2cc(Oc3ccnc(-c4ncc(C(F)(F)F)[nH]4)c3)ccc21 [RAF265] + CS(=O)(=O)CCNCc1ccc(-c2ccc3ncnc(Nc4ccc(OCc5cccc(F)c5)c(Cl)c4)c3c2)o1 [Lapatinib] (partner 2 µM)
# Procedure, shortened: as §1
# RAF265 + Bortezomib = compound: Cn1c(Nc2ccc(C(F)(F)F)cc2)nc2cc(Oc3ccnc(-c4ncc(C(F)(F)F)[nH]4)c3)ccc21 [RAF265] + CC(C)C[C@H](NC(=O)[C@H](Cc1ccccc1)NC(=O)c1cnccn1)B(O)O [Bortezomib] (partner 0.002 µM)
# Procedure, shortened: as §1
Cell Line,relative viability (RAF265 + Tozasertib; first compound 0.01 µM),relative viability (RAF265 + Tozasertib; first compound 0.03162 µM),relative viability (RAF265 + Tozasertib; first compound 0.1 µM),relative viability (RAF265 + Tozasertib; first compound 0.3162 µM),relative viability (RAF265 + Tozasertib; first compound 1 µM),relative viability (Doramapimod + Pemetrexed; first compound 0.02 µM),relative viability (Doramapimod + Pemetrexed; first compound 0.06325 µM),relative viability (Doramapimod + Pemetrexed; first compound 0.2 µM),relative viability (Doramapimod + Pemetrexed; first compound 0.6325 µM),relative viability (Doramapimod + Pemetrexed; first compound 2 µM),relative viability (RAF265 + Lapatinib; first compound 0.01 µM),relative viability (RAF265 + Lapatinib; first compound 0.03162 µM),relative viability (RAF265 + Lapatinib; first compound 0.1 µM),relative viability (RAF265 + Lapatinib; first compound 0.3162 µM),relative viability (RAF265 + Lapatinib; first compound 1 µM),relative viability (RAF265 + Bortezomib; first compound 0.01 µM),relative viability (RAF265 + Bortezomib; first compound 0.03162 µM),relative viability (RAF265 + Bortezomib; first compound 0.1 µM),relative viability (RAF265 + Bortezomib; first compound 0.3162 µM),relative viability (RAF265 + Bortezomib; first compound 1 µM)
LK-2,0.164,0.166,0.153,0.178,0.152,0.283,0.286,0.283,0.198,0.157,0.879,0.875,1.06,1.03,0.632,–,–,–,–,–
NCI-H727,0.703,0.642,0.641,0.536,0.411,–,–,–,–,–,0.915,0.736,0.963,1.1,0.371,0.855,0.783,0.908,0.796,0.456
Calu-6,–,–,–,–,–,–,–,–,–,–,1.01,0.875,0.877,0.485,0.388,0.919,0.819,0.834,0.473,0.368
NCI-H1395,0.677,0.667,0.666,0.84,0.609,0.82,1.04,0.889,0.836,0.696,1.41,0.943,0.957,0.942,0.912,–,–,–,–,–
NCI-H1703,–,–,–,–,–,–,–,–,–,–,1.07,0.825,1.03,0.613,0.386,0.253,0.289,0.36,0.295,0.216
EBC-1,–,–,–,–,–,–,–,–,–,–,0.209,0.218,0.232,0.284,0.247,0.48,0.464,0.521,0.482,0.489
NCI-H1648,0.425,0.431,0.598,0.466,0.417,0.745,0.87,0.584,0.705,0.632,–,–,–,–,–,–,–,–,–,–
ChaGo-K-1,0.215,0.246,0.217,0.243,0.235,0.263,0.254,0.255,0.26,0.243,–,–,–,–,–,0.92,1.08,1.12,1.03,0.662
SW 900,0.648,0.583,0.594,0.526,0.295,0.513,0.513,0.478,0.502,0.479,–,–,–,–,–,–,–,–,–,–
NCI-H2342,0.551,0.592,0.542,0.52,0.463,0.733,0.759,0.789,0.788,0.784,–,–,–,–,–,–,–,–,–,–
A549,–,–,–,–,–,–,–,–,–,–,0.906,0.853,0.987,0.465,0.463,–,–,–,–,–
NCI-H441,0.715,0.69,0.667,0.475,0.36,0.252,0.244,0.251,0.268,0.268,–,–,–,–,–,0.446,–,0.499,0.362,0.207
LCLC-103H,0.472,0.48,0.42,0.424,0.227,0.436,0.417,0.413,0.428,0.424,–,–,–,–,–,1.02,1.07,0.994,1,0.627
